Experimental data: ChEMBL document CHEMBL2424622, “Development of amino-pyrimidine inhibitors of c-Jun N-terminal kinase (JNK): kinase profiling guided optimization of a 1,2,3-benzotriazole lead” (Bioorg Med Chem Lett, 2013)

Key:
[1] = biological target: T1, Serine/threonine-protein kinase TNNI3K (Homo sapiens) (UniProt Q59H18); test: Competitive binding affinity to […] (unknown origin) at 10 uM in presence of ATP relative to control
T1 sequence (whole entry): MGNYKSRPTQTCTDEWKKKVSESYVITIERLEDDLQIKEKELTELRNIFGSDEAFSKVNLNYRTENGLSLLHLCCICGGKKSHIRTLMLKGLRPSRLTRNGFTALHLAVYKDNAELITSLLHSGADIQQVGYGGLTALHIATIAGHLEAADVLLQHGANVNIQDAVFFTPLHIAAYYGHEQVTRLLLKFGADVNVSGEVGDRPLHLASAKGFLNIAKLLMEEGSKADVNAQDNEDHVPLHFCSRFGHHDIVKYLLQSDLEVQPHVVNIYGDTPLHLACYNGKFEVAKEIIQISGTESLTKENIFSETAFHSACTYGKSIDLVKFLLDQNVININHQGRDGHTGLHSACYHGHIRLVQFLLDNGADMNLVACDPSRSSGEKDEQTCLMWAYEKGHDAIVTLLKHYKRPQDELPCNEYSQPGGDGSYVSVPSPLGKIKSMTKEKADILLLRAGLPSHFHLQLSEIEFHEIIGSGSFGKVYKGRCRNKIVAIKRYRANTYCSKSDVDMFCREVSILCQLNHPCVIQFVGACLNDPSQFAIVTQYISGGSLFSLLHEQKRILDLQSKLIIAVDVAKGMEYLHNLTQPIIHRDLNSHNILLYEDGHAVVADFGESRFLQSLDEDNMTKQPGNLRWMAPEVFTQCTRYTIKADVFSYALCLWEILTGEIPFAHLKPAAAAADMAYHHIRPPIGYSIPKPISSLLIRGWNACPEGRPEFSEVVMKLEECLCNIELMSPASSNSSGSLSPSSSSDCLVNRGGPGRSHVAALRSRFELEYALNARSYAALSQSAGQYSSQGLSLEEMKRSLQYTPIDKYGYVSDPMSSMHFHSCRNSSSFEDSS

[2] = biological target: T2, Casein kinase I isoform alpha-like (Homo sapiens) (UniProt Q8N752); test: Competitive binding affinity to CSNK1A1L (unknown origin) at 10 uM in presence of ATP relative to control
T2 sequence (whole entry): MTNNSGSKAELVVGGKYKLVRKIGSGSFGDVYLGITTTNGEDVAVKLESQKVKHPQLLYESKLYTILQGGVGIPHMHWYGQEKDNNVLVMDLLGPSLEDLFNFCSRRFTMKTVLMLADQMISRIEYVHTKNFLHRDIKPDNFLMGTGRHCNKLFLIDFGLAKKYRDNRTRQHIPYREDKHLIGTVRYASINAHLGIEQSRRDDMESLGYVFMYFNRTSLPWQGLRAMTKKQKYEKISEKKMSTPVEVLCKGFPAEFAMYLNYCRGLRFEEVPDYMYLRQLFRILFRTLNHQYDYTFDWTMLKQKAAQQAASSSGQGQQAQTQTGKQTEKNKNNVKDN

[3] = biological target: T3, Myosin-IIIb (Homo sapiens) (UniProt Q8WXR4); test: Competitive binding affinity to MYO3B (unknown origin) at 10 uM in presence of ATP relative to control
T3 sequence (whole entry): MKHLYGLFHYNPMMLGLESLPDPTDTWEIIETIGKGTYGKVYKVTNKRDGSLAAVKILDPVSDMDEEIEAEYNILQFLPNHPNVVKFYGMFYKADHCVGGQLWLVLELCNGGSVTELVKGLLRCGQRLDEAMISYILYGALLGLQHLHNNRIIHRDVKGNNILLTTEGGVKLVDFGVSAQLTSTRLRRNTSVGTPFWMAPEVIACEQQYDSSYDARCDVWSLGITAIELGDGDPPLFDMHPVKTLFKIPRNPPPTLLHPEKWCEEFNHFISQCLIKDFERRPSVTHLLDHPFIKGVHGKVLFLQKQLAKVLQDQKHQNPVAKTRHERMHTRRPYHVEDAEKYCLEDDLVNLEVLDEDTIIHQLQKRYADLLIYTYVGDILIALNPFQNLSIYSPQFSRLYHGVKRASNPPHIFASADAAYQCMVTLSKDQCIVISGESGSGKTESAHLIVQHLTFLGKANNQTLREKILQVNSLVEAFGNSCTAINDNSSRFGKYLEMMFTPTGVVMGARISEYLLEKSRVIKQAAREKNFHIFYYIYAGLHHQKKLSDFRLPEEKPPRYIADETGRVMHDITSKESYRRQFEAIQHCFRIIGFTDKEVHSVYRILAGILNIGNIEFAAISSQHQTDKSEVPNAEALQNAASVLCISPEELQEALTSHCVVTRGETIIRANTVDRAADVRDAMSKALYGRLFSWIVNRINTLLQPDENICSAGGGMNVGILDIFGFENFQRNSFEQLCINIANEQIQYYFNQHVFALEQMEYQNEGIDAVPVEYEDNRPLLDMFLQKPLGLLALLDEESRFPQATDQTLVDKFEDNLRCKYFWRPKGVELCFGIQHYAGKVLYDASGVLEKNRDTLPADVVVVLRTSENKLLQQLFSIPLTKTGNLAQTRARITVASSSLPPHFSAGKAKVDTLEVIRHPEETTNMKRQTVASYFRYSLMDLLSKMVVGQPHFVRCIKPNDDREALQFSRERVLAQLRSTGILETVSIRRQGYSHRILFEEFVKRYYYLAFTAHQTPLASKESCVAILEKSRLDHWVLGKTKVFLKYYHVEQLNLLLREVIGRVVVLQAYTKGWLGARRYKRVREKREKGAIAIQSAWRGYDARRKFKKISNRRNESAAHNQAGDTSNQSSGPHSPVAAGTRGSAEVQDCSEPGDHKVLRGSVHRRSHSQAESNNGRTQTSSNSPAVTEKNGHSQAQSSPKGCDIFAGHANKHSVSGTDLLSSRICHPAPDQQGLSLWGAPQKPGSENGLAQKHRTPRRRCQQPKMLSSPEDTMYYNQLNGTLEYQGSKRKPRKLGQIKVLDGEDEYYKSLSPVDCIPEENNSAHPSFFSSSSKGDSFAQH

inhibition [1] [%] | inhibition [2] [%] | inhibition [3] [%] | SMILES
< 50 | 91 | < 50 | O[C@H]1CC[C@H](Nc2nccc(-n3ncc4ccccc43)n2)CC1
< 50 | 74 | < 50 | O[C@H]1CC[C@H](Nc2nccc(-n3ccc4ccccc43)n2)CC1
< 50 | 100 | – | O[C@H]1CC[C@H](Nc2nccc(-c3n[nH]c4ccccc34)n2)CC1
< 50 | 100 | < 50 | O[C@H]1CC[C@H](Nc2nccc(-n3nnc4ccccc43)n2)CC1
